The values below come from US20240269104A1, “METHOD FOR TREATING PARKINSON'S DISEASE” (Olatec Therapeutics, Inc., priority 2021, published 2024).

One data set concerns TREM2. Put plainly: TREM2 immunoblotting in the striatum after MPTP-acute administration. Type of data set: in vivo, mice. To be noted: 200 mg/kg once each day; day 4 after MPTP-acute. As to the method: In this example, we measured the levels of […] (TREM2) after dapansutrile treatment. TREM2 may be a potential target for treating PD. For TREM2, mice were sacrificed at day 4 after MPTP-acute administration. The St was excised, and proteins were extracted and quantified as described in Example 9. 30 μg of protein per sample were resolved in a Mini-PROTEAN TGX 4-20% gradient gel (Bio-Rad, Hercules, CA) in 0.1% SDS running buffer (Bio-Rad). The gel was transferred to a […] nitrocellulose membrane (GE Healthcare, Chicago, IL). Membranes were blocked with 5% blocking buffer (Bio-Rad) in TBS 0.1% (v/v) Tween solution for one hour at room temperature. Samples were incubated overnight with primary antibody for mouse TREM2 (1:1000, Cell Signaling, Danvers, MA). Peroxidase-conjugated secondary antibody (Jackson ImmunoResearch, Philadelphia, PA) and chemiluminescence were used to detect the protein concentration. Conjugated antibody against β-actin (Santa Cruz Biotechnology, Dallas, TX) was used to normalize protein concentrations. Protein bands for monomeric and oligomeric forms of each individual mice were quantified using NIH ImageJ software. Four mice per group were used.

A short description of data set [1]: brain levels of dapansutrile after fortified feed pellets. To be noted: oral. Type of data set: in vivo, mice. On the procedure:
Mice were treated with dapansutrile by ad libitum consumption of dapansutrile-fortified feed pellets (7.5 g/kg) for 21 days. Control mice received a matching unfortified diet without dapansutrile. Mice were monitored during the study for any changes in physiological parameters, including irregular weight gain or loss as well as changes in body temperature. On day 21, mice were sacrificed, and brains were isolated. Dapansutrile measurements in the whole brain homogenates were performed at Syneos Health (Princeton, NJ). Five mice per group were assessed. […] The ability of dapansutrile to cross BBB even when delivered orally provides a potential advance for the treatment of chronic patients like PD.

The subject of data set [2] is MPTP-injected-mouse model of PD. Kind of data set: accelerating rotarod test after MPTP-acute administration. Type of data set: in vivo, C56BL/J mice. As to the method:
MPTP (Sigma-Aldrich, St. Louis, MO) can be administered at two dose regimens: acute and sub-acute. For the acute regimen, MPTP was administered intraperitoneally (i.p.) four times in one day. Administrations were performed every two hours over an eight-hour period. For the subacute regimen, mice received a single i.p. administration of MPTP per day for five consecutive days. A 20 mg/kg free-base MPTP dose was used for every dose in both models. Sterile saline was used as the vehicle. Control mice were injected with saline solution using the same administration protocol and were defined as sham. Mice were sacrificed at different days after the first injection of MPTP. We used the acute protocol in C56BL/J mice to study dopamine neurodegeneration, inflammation, and motor deficits, whereas the subacute model was used to evaluate α-synuclein aggregation in the following examples. […]
The accelerating rotarod (Ugo Basile, Gemonio, ITALY) was used to evaluate locomotor function in mice subjected to the MPTP-acute administration. An accelerating program was selected to detect locomotor impairments associated to MPTP (Keshet et al, J Comp Neurol 504:690-701, 2007; Rui et al., Int J Neuropsychopharmacol., 2020). We used a rotarod device with a cylinder rod of three centimeters in diameter. The mice underwent a training period of three consecutive days prior to MPTP administration. In each training session, mice were subjected to run at four constant speeds (10 rpm, 20 rpm, 30 rpm, and 40 rpm) for 150 seconds at each speed. If mice fell during that time, they were put back in the rotarod immediately. On the testing day, we used an increased-speed program. Mice were placed on the rotarod device for 150 seconds at 30 rpm as warm up. Immediately after 150 seconds, the accelerating session started, and the speed increased from 30 rpm to 70 rpm for 500 seconds. Time to fall was recorded. Accelerating sessions were repeated three times with a resting interval of five minutes between sessions. Average time to fall per mouse was calculated and used as final measurement.
We then evaluated the effect of dapansutrile. To avoid overloading animals with fluid (which can lead to fatal heart failure), dapansutrile was administered through oral gavage at 200 mg/kg in water. Dapansutrile was given 30 minutes before the first injection of MPTP. Mice treated with saline were used as control. We also included a sham-group that received saline through intraperitoneal injections instead of MPTP. […]

The next data set has as its system IL-18. Kind of data set: IL-18 in brain homogenates by ELISA after MPTP. Type of data set: in vivo, mice. As to the method:
Mice were treated with dapansutrile or saline and injected with MPTP as described in Example 2.
At three days after MPTP, mice were sacrificed and levels of IL-18 in the brain were measured. Briefly, the brain was removed from the mouse and a piece of the striatum was homogenized. Levels of proteins were normalized to 2 mg/ml and IL-18 was measured using the mouse IL-18 ELISA from R and D Systems.
(§1) It has been reported that administration of MPTP induces the assembly of NLPR3 inflammasome in the brain. Mice were sacrificed after anesthesia by cervical dislocation at 4 and 7 days after MPTP administration. Brains were collected, and the striatum (St) and ventral midbrain (VM) areas of both hemispheres were excised and frozen in liquid nitrogen. Samples were homogenized in RIPA buffer (Thermo Fisher, Waltham, MA) supplemented with protease inhibitor (Thermo Fisher) using a TissueRuptor (Qiagen, Germantown, MD). Protein concentration was determined using a BCA Protein Assay Kit (Thermo Fisher) according to manufacturer's instructions. Samples were diluted to 2 mg/ml in the same extraction buffer.
(§2) Levels of IL-1β, IL-18, IL-6, and IL-17A from brain homogenates were measured by ELISA DuoSet kit (R&D Systems, Minneapolis, MN). ELISA kit for IL-1β detects 92-95% of the 17 kDa form and only 8-5% of the precursor form of this cytokine. 96-well plates (ThermoFisher Scientific) were coated with capture antibody. Samples were incubated for two hours at room temperature. Detection antibodies and streptavidin-HRP were added. TMB ELISA (cBioscience, San Diego, CA) was used as substrate solution. Results were measured in a microplate reader (Bio-Tek, Santa Clara, CA). Final values were normalized by the protein concentration of each sample. 4-5 mice per group were used for each cytokine.
A general note: In an ELISA, binding on a coated surface is turned into a signal by an enzyme label.

For the next data set, the system named is IL-1β. Put plainly: IL-1β in brain homogenates by ELISA after MPTP. Type of data set: in vivo, mice. To be noted: 200 mg/kg once each day; 4 days after MPTP-acute.
Source text: as §1, §2

Where [3] appears, read: fortified feed pellets, 21 days.
The mark [4] stands for this setting: 200 mg/kg once a day, three days after MPTP-acute.
Where [5] appears, read: 200 mg/kg oral gavage 30 minutes before first MPTP injection, day 3 after MPTP.
[6] abbreviates: 200 mg/kg once each day, four days after MPTP-acute.

Regarding `CS(=O)(=O)CCC#N` [dapansutrile, 3-methanesulfonylpropionitrile], in the data set on TREM2, the “levels of 35 kDa-glycosylated form of TREM2 in the striatum” value is given as “no changes” and the “levels of nonglycosylated form of TREM2 (28 kDa) in the striatum” value is reported as “significantly increased, reaching basal condition”. Besides, the concentration at 21 days in data set [1] (mouse, brain (whole brain homogenate), fortified feed pellets 7.5 g/kg ad libitum, whole brain homogenates, read-out: dapansutrile level in the brain) is 47000 ng/g. In addition, in data set [1] (setting [3]), the “brain level relative to concentration required to inhibit the NLRP3 assembly” value was “at least 30 times” and the “crossing of the blood-brain barrier” value is recorded as “readily crosses the BBB”. Moreover, in data set [2] (60 mg/kg once a day, three days after MPTP-acute), the “time to fall on accelerating rotarod versus MPTP+saline” value was “did not show any significant improvement”. Moreover, in data set [2] (setting [4]), the “mice that reached 8 cm/s on the rotarod” value came out at 7%, the “mice that reached the 7 cm/s speed on the rotarod” value is given as “approximately 50%”, the “time to fall on accelerating rotarod versus MPTP+saline” value was “doubling” and the “time to fall on accelerating rotarod versus sham mice” value was “nearly the same as the sham mice”. Moreover, in data set [2] (setting [5]), the “rotarod latency to fall, difference against sham group” value is given as “not significant differences” and the “time on the rotarod more than mice treated with water (latency to fall)” value is on record as “around 90 seconds”. In the data set with IL-18 (setting [6]), the “levels of IL-18 in the ventral midbrain (VM)” value is recorded as “no changes associated to dapansutrile” and the “reduction in the levels of IL-18 in the striatum (St) versus MPTP mice treated with saline” value turned out to be 15%. Further, the “levels of IL-18 in the brain in comparison with mice treated with water” value with IL-18 (200 mg/kg oral gavage, striatum, three days after MPTP) was “reduced the levels of IL-18 in the brain”. In the data set with IL-1β, the “levels of IL-1β in the ventral midbrain (VM)” value is “no changes associated to dapansutrile” and the “reduction of levels of IL-1β in the striatum (St)” value is on record as 24%.
